pIC50: −log10 of the molar value.
Test system: NCI-H322M multicellular tumor spheroids, viability (% test/control)
Experiment: Anticancer human tumor NCI-H322M cell line growth inhibition;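 as to viability, T/C: spheroids exposed to compound for seven days before readout; 100% = DMSO vehicle control wells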
Conditions: for pIC50: curve of first compound; for viability, T/C: stronger effect = lower value
Summary of the method: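 Single agents and combinations were tested on spheroids built from tumor cells plus HUVEC and hMSC, at half-log dilutions starting at or near clinical Cmax, else 10 microM; final DMSO 0.25% (v/v).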

[1] = second compound 1 µM, first compound 0.0316 µM
[2] = second compound 1 µM, first compound 0.1 µM
[3] = second compound 1 µM, first compound 0.316 µM
[4] = second compound 1 µM, first compound 1 µM
[5] = second compound 1 µM, first compound 3.16 µM
[6] = second compound 1 µM, first compound 10 µM
[7] = second compound 3.16 µM, first compound 0.0316 µM
[8] = second compound 3.16 µM, first compound 0.1 µM
[9] = second compound 3.16 µM, first compound 0.316 µM
[10] = second compound 3.16 µM, first compound 1 µM
[11] = second compound 3.16 µM, first compound 3.16 µM
[12] = second compound 3.16 µM, first compound 10 µM
[13] = second compound 10 µM, first compound 0.0316 µM
[14] = second compound 10 µM, first compound 0.1 µM
[15] = second compound 10 µM, first compound 0.316 µM
[16] = second compound 10 µM, first compound 1 µM
[17] = second compound 10 µM, first compound 3.16 µM
[18] = second compound 10 µM, first compound 10 µM
[19] = second compound 31.6 µM, first compound 0.0316 µM
[20] = second compound 31.6 µM, first compound 0.1 µM
[21] = second compound 31.6 µM, first compound 0.316 µM
[22] = second compound 31.6 µM, first compound 1 µM
[23] = second compound 31.6 µM, first compound 3.16 µM
[24] = second compound 31.6 µM, first compound 10 µM
[25] = second compound 100 µM, first compound 0.0316 µM
[26] = second compound 100 µM, first compound 0.1 µM
[27] = second compound 100 µM, first compound 0.316 µM
[28] = second compound 100 µM, first compound 1 µM
[29] = second compound 100 µM, first compound 3.16 µM
[30] = second compound 100 µM, first compound 10 µM

CC1COCCN1c1cc(-c2ccnn2C)c2ccnc(-c3ccn[nH]3)c2n1 (stereo not given) + Cn1nnc2c(C(N)=O)ncn2c1=O
pIC50 (second compound 1 µM): 6.89
pIC50 (second compound 3.16 µM): 6.81
pIC50 (second compound 10 µM): 7.10
pIC50 (second compound 31.6 µM): > 7.50
pIC50 (second compound 100 µM): > 7.50
viability, T/C [1]: 66.3%
viability, T/C [2]: 54.4%
viability, T/C [3]: 43.5%
viability, T/C [4]: 37.4%
viability, T/C [5]: 41.5%
viability, T/C [6]: 48.5%
viability, T/C [7]: 63%
viability, T/C [8]: 55.1%
viability, T/C [9]: 42.3%
viability, T/C [10]: 34.1%
viability, T/C [11]: 37.7%
viability, T/C [12]: 40.8%
viability, T/C [13]: 72.2%
viability, T/C [14]: 44.5%
viability, T/C [15]: 45.4%
viability, T/C [16]: 37.3%
viability, T/C [17]: 40.6%
viability, T/C [18]: 50%
viability, T/C [19]: 56.1%
viability, T/C [20]: 43%
viability, T/C [21]: 37.1%
viability, T/C [22]: 36.6%
viability, T/C [23]: 35.9%
viability, T/C [24]: 41.4%
viability, T/C [25]: 41.1%
viability, T/C [26]: 34.8%
viability, T/C [27]: 31.7%
viability, T/C [28]: 32%
viability, T/C [29]: 35.4%
viability, T/C [30]: 40.6%

CNCc1ccc(-c2cc(-c3nc(-c4ccc(S(=O)(=O)C(C)C)cc4)cnc3N)on2)cc1 + Cn1nnc2c(C(N)=O)ncn2c1=O
pIC50 (second compound 1 µM): < 5.52
pIC50 (second compound 3.16 µM): < 5.52
pIC50 (second compound 10 µM): < 5.52
pIC50 (second compound 31.6 µM): < 5.52
pIC50 (second compound 100 µM): < 5.52
viability, T/C (second compound 1 µM, first compound 0.00949 µM): 100%
viability, T/C (second compound 1 µM, first compound 0.03 µM): 104%
viability, T/C (second compound 1 µM, first compound 0.0949 µM): 82.1%
viability, T/C (second compound 1 µM, first compound 0.3 µM): 84.1%
viability, T/C (second compound 1 µM, first compound 0.949 µM): 75.7%
viability, T/C (second compound 1 µM, first compound 3 µM): 83.3%
viability, T/C (second compound 3.16 µM, first compound 0.00949 µM): 79.5%
viability, T/C (second compound 3.16 µM, first compound 0.03 µM): 76.2%
viability, T/C (second compound 3.16 µM, first compound 0.0949 µM): 75%
viability, T/C (second compound 3.16 µM, first compound 0.3 µM): 86.9%
viability, T/C (second compound 3.16 µM, first compound 0.949 µM): 81.4%
viability, T/C (second compound 3.16 µM, first compound 3 µM): 87.6%
viability, T/C (second compound 10 µM, first compound 0.00949 µM): 78.7%
viability, T/C (second compound 10 µM, first compound 0.03 µM): 89%
viability, T/C (second compound 10 µM, first compound 0.0949 µM): 77.6%
viability, T/C (second compound 10 µM, first compound 0.3 µM): 99.2%
viability, T/C (second compound 10 µM, first compound 0.949 µM): 81.1%
viability, T/C (second compound 10 µM, first compound 3 µM): 75.4%
viability, T/C (second compound 31.6 µM, first compound 0.00949 µM): 110%
viability, T/C (second compound 31.6 µM, first compound 0.03 µM): 76.2%
viability, T/C (second compound 31.6 µM, first compound 0.0949 µM): 78.3%
viability, T/C (second compound 31.6 µM, first compound 0.3 µM): 76.3%
viability, T/C (second compound 31.6 µM, first compound 0.949 µM): 68.4%
viability, T/C (second compound 31.6 µM, first compound 3 µM): 66%
viability, T/C (second compound 100 µM, first compound 0.00949 µM): 95.6%
viability, T/C (second compound 100 µM, first compound 0.03 µM): 87%
viability, T/C (second compound 100 µM, first compound 0.0949 µM): 81.7%
viability, T/C (second compound 100 µM, first compound 0.3 µM): 71%
viability, T/C (second compound 100 µM, first compound 0.949 µM): 70.1%
viability, T/C (second compound 100 µM, first compound 3 µM): 58.3%

COc1cc(C)[nH]c(=O)c1CN1CCc2c(Cl)cc(C(OC)C3COC3)c(Cl)c2C1=O (stereo not given) + Cn1nnc2c(C(N)=O)ncn2c1=O
pIC50 (second compound 1 µM): < 5.00
pIC50 (second compound 3.16 µM): < 5.00
pIC50 (second compound 10 µM): < 5.00
pIC50 (second compound 31.6 µM): < 5.00
pIC50 (second compound 100 µM): < 5.00
viability, T/C [1]: 90.6%
viability, T/C [2]: 93.2%
viability, T/C [3]: 97.7%
viability, T/C [4]: 106%
viability, T/C [5]: 88.1%
viability, T/C [6]: 93.3%
viability, T/C [7]: 97.5%
viability, T/C [8]: 85.8%
viability, T/C [9]: 97.4%
viability, T/C [10]: 99.5%
viability, T/C [11]: 95.4%
viability, T/C [12]: 100%
viability, T/C [13]: 100%
viability, T/C [14]: 108%
viability, T/C [15]: 97.2%
viability, T/C [16]: 92.3%
viability, T/C [17]: 90.2%
viability, T/C [18]: 91.6%
viability, T/C [19]: 91%
viability, T/C [20]: 113%
viability, T/C [21]: 102%
viability, T/C [22]: 92.3%
viability, T/C [23]: 94.1%
viability, T/C [24]: 96.5%
viability, T/C [25]: 109%
viability, T/C [26]: 106%
viability, T/C [27]: 114%
viability, T/C [28]: 89.7%
viability, T/C [29]: 95%
viability, T/C [30]: 101%

From PubChem BioAssay AID1845211 (Molecular Pharmacology Branch, DTP, NCI, 2023)
